Test results taken from patent publication US10624948B2, “Use of cell-permeable peptide inhibitors of the JNK signal transduction pathway for the treatment of various diseases” (Xigen Inflammation Ltd., priority 2013, dated 2020).

What was measured:
[1] = tested on: Primary cultured macrophages; type: cell-based
Procedure: FIG. 24 Primary cultured macrophages were incubated with XG-102 (SEQ ID NO: 11) and extensively washed.

[2] = tested on: Brown Norway rats, STZ-induced diabetic retinopathy; assay: Diabetic retinopathy prevention study in STZ treated rat (IVT); type: in vivo
Procedure: The objective of this study was to determine the ability of XG-102 to prevent diabetic retinopathy when administered by intravitreal injections to streptozotocin (STZ)-treated (hyperglycemic) rats.
All animals from Groups 2, 3, 4 received a 55 mg/kg intravenous (IV) dose of STZ on Day −7.
Test items or reference item were administered by intravitreal injection to the left and right eyes of each animal on Days 1, 8 and 15 as indicated in the Experimental Design table. The animals were anesthetized (isoflurane) for the dose administration, which was performed by a board-certified veterinary ophthalmologist. Topical antibiotics (gentamicin ophthalmic solution) were applied to both eyes twice on the day before treatment, following the injection and at least once on the day following the injection. Prior to dosing, mydriatic drops (1% tropicamide and/or 2.5% phenylephrine) were applied to each eye (further applications were performed when considered appropriate by the veterinary ophthalmologist). During dosing, animals were maintained under anesthesia with isoflurane/oxygen gas. The conjunctivae were flushed with 0.9% Sodium Chloride for Injection USP. A 10 μl Hamilton syringe with 32-gauge, ½-inch needle was used for each intravitreal injection (one syringe/group/treatment). The dose volume was 5 μL/eye. Both eyes were examined by slit-lamp biomicroscopy and/or indirect ophthalmoscopy immediately following each treatment to document any abnormalities (especially to the lens, vitreous and retina) caused by the administration procedure. […]
The in-life procedures, observations, and measurements listed below were performed for study animals. […] Food consumption was quantitatively measured weekly starting during the last week of the pretreatment period. […] Intraocular pressure was measured following each ophthalmology examination, once prestudy and on Day 22, using a TonoVet™ rebound tonometer. The pre-treatment tonometry readings were performed at the same times as anticipated for the final measurements to reduce diurnal variability. […]

[3] = Phase II trial, safety and tolerability (adverse events)
Procedure: The criteria for evaluation of safety were:
An AE is therefore any unfavorable and unintended sign, symptom or disease temporally associated with the use of a medicinal product, whether or not considered related to the medicinal product.
Patients were analyzed as treated, i.e. according to the treatment which they received. The safety set was the primary analysis set for the safety analysis.
The present study was a double-blind study. All patients who were randomized and for whom the sub-conjunctival injection was started are included in the safety analysis by dose group. […] If the study treatment eye drops were stopped prematurely (i.e. before day 21), the patients concerned continued follow-up until day 28, in accordance with the study protocol.
Investigators assessed (in a blinded manner) the relationship of each reported AE to any of the study treatments. An event was considered to be related to study treatment if the Investigator ticked either ‘possible’ or ‘probable’ as the reply to this question.

Q: With `CC(C)C[C@@H](NC(=O)[C@@H](Cc1ccccc1)NC(=O)[C@H]1CCCN1C(=O)[C@@H](CCC(N)=O)NC(=O)[C@H](NC(=O)[C@H]1CCCN1C(=O)[C@@H](CCCNC(=N)N)NC(=O)[C@@H](CO)NC(=O)[C@@H](CCC(N)=O)NC(=O)[C@H](N)CC(=O)O)C(C)C)C(=O)N[C@H](CC(N)=O)C(=O)N[C@H](CC(C)C)C(=O)N[C@@H](C(=O)N[C@@H](C(=O)N1CCC[C@@H]1C(=O)N[C@H](CCCNC(=N)N)C(=O)N[C@H](CCCCN)C(=O)N1CCC[C@@H]1C(=O)N[C@H](CCCNC(=N)N)C(=O)N1CCC[C@@H]1C(=O)N1CCC[C@@H]1C(=O)N[C@H](CCCNC(=N)N)C(=O)N[C@H](CCCNC(=N)N)C(=O)N[C@H](CCCNC(=N)N)C(=O)N[C@H](CCC(N)=O)C(=O)N[C@H](CCCNC(=N)N)C(=O)N[C@H](CCCNC(=N)N)C(=O)N[C@H](CCCCN)C(=O)N[C@H](CCCCN)C(=O)N[C@H](CCCNC(=N)N)C(=O)NCC(=O)O)[C@H](C)O)[C@H](C)O` [XG-102] as the molecule, how does the “incorporation into primary macrophages” value [1] read?
A: strongly incorporated into primary macrophages

Q: What about the mortality ([2]; IVT Days 1, 8, 15) of the same molecule?
A: no XG-102-related deaths

Q: And the “ERG wave amplitude, overall” value ([2]; rat, in vivo)?
A: tendency for XG-102 to reverse the decrease of the wave amplitude

Q: And the ERG latencies ([2]; ≤2 μg/eye)?
A: comparable and remained within the control and/or pretreatment variation

Q: What about the “patients with Intraocular pressure increased” value ([3]; XG-102 90 μg) of the same molecule?
A: 23%

Q: What about the “percentage of patients who experienced an AE within 24 hours” value ([3]; XG-102 90 μg) of the same molecule?
A: 34%

Q: What about the overall tolerability ([3]; XG-102 90 μg and 900 μg) of the same molecule?
A: well tolerated in patients who underwent complex ocular surgery

Q: What about the “Adverse events which led to an interruption of study treatment” value ([3]; XG-102 90 μg dose group) of the same molecule?
A: 11 (14.1%) number of events (%)

Q: And the “patients with Intraocular pressure increased” value ([3]; XG-102 900 μg)?
A: 10%

Q: What about the “percentage of patients who experienced an AE within 24 hours” value ([3]; XG-102 900 μg) of the same molecule?
A: 27%

Q: And the “Adverse events which led to an interruption of study treatment” value ([3]; XG-102 900 μg dose group)?
A: 8 (11.6%) number of events (%)
